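Where inhibition never reached the appropriate level, the endpoint shown equals the highest concentration tested. Otherwise, values were interpolated linearly from a five-concentration, 48-hour dose response in 96-well plates. TGI: concentration producing complete growth inhibition.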
Tests used:
Test in all cases: NCI tumour cell line growth inhibition, 48 h
[1] = system: LXFL 529 NSCLC
[2] = system: XF 498 CNS
[3] = system: M19-MEL melanoma
[4] = system: UO-31 renal
[5] = system: SW-620 colon
[6] = system: SK-OV-3 ovarian
[7] = system: DMS 273 small cell lung
[8] = system: RPMI-8226 leukemia
[9] = system: M14 melanoma
[10] = system: CCRF-CEM leukemia
[11] = system: HCT-116 colon
[12] = system: T-47D breast

SMILES | TGI [1] [µM] | TGI [2] [µM] | TGI [3] [µM] | TGI [4] [µM] | TGI [5] [µM] | TGI [6] [µM] | TGI [7] [µM] | TGI [8] [µM] | TGI [9] [µM] | TGI [10] [µM] | TGI [11] [µM] | TGI [12] [µM]
Cc1ccc(Nc2ccc(Nc3ccc(C)cc3)c3c2C(=O)c2c(O)ccc(O)c2C3=O)cc1 | > 100 | > 100 | > 100 | > 100 | > 100 | > 100 | > 100 | > 100 | > 100 | > 100 | > 100 | –
COc1ccc2c(c1)CC[C@@H]1C2CC[C@]2(C)C(=O)NC(=O)CC12 (stereo partly drawn) | > 100 | > 100 | > 100 | > 100 | > 100 | > 100 | > 100 | > 100 | > 100 | > 100 | > 100 | –
CCN(CC)CCCNC(=O)Cc1ccccc1Nc1c(Cl)cccc1Cl | 21.3 | 20.8 | 17.4 | 23.8 | 32.8 | 29.1 | 28.1 | 29.1 | 7.88 | 28.2 | 27.2 | –
CCOC(=O)C(C[Si](C)(C)C)P(=O)(OCC)OCC (stereo not drawn) | > 100 | > 100 | > 100 | > 100 | > 100 | > 100 | > 100 | > 100 | > 100 | > 100 | > 100 | –
C[Si](C)(C)/C=C/CN1C(=O)CCC1O (stereo not drawn) | > 100 | > 100 | > 100 | > 100 | > 100 | > 100 | > 100 | > 100 | > 100 | > 100 | > 100 | –
O=c1[nH]c(=S)[nH]c(O)c1/C=C1\C=CC=N1 | 21.9 | 32.3 | > 100 | 31.2 | 23.5 | > 100 | 25.3 | 23 | 54.8 | 75.5 | 18.7 | –
CN(O)C(=O)Cc1ccccc1 | > 100 | > 100 | > 100 | > 100 | > 100 | > 100 | > 100 | > 100 | > 100 | > 100 | > 100 | –
Cc1ccc(N2C(=O)/C(=C3\Sc4c(nc(C)[nH]c4=O)N3c3ccccc3)SC2=S)cc1 | > 100 | 51.8 | > 100 | 92.1 | > 100 | 53.5 | > 100 | > 100 | > 100 | > 100 | > 100 | –
CC1(C)OCN(c2ccc(Cl)cc2)Cn2c1nc1ccccc12 | > 100 | > 100 | > 100 | 97.1 | > 100 | > 100 | > 100 | > 100 | > 100 | > 100 | > 100 | > 100
CCCCCCCCCC(=O)CC(=O)c1c(O)cccc1O | > 100 | 40 | > 100 | > 100 | 83.2 | 64.1 | 39.1 | 61.2 | 72.1 | 61 | > 100 | –
O=c1c([Se]c2coc3ccccc3c2=O)coc2ccccc12 | 28.8 | 30.5 | 28.6 | 26.3 | 34.3 | 29.8 | 24 | 56.3 | 28.2 | > 100 | 12.3 | –
O=C1C2=C(c3ccccc31)C(c1ccccc1Cl)N1C(=O)CSC1=N2 (stereo not drawn) | > 100 | > 100 | > 100 | > 100 | > 100 | > 100 | > 100 | > 100 | > 100 | > 100 | > 100 | –
